{"source": "patent US12098139B2", "about": "“Chemokine receptor modulators and uses thereof” (RAPT Therapeutics, Inc., priority 2018, dated 2024)", "system": "ovalbumin-induced pulmonary inflammation", "assay": "Murine model of ovalbumin-induced pulmonary inflammation (BALF cell counts and mediators)", "assay_type": "in vivo, mouse (female Balb/c)", "method": "A study was performed to investigate the effects of daily oral administration of the compound 2-((R)-3-(1-(1-((R)-1-(2,4-Dichlorophenyl)ethyl)-3-(cyano)-1H-pyrazolo[3,4-b]pyrazin-6-yl)azetidin-3-yl)piperidin-1-yl)ethan-1-ol (FLX-A-12) (disclosed in US Patent Publication 2018-0072740 published Mar. 15, 2018) and the compound (1R,3r)-3-((R)-3-(1-(5-chloro-4-(((R)-1-(2,4-dichlorophenyl)ethyl)amino)-6-methylpyrimidin-2-yl)azetidin-3-yl)piperidin-1-yl)-1-methylcyclobutane-1-carboxylic acid (FLX-B-10) (disclosed in Example 38 herein) on the level of lung eosinophilia in a murine model of ovalbumin-induced pulmonary inflammation. An automated system of haematological cellular analysis (DASIT Sysmex XT-2000iV) was used to perform total and differential cell counts and assess the degree of ovalbumin challenge-induced pulmonary eosinophilia. FLX-A-12 and FLX-B-10 were administered daily for five days at the doses of 50 and 30-100 mg/kg respectively, and eosinophilic inflammation was measured 24 hours after the last ovalbumin challenge. Dexamethasone was included as a positive reference substance (3 mg/kg p.o. daily). On days 20-23 inclusive, mice received vehicle (30% PG in water), reference compound (Dexamethasone, 3 mg/kg) and test compounds (FLX-A-12 at 50 mg/kg and FLX-B-10 at 30 and 100 mg/kg), 1 hr prior ovalbumin challenge via the p.o. route. In addition, the test compounds (FLX-A-12 and FLX-B-10) were dosed on day 19 24 hr prior to the dosing on day 20.\nFLX-A-12 was formulated at the concentration of 5 mg/mL (corresponding to the dose of 50 mg/kg in a dose volume of 10 mL/kg) in 30% PG in water. The doses of FLX-B-10 (30 and 100 mg/kg) were prepared by dissolving 3 and 10 mg/ml of the compound respectively in 30% PG in water at a dose volume of 10 ml/kg. The dose of Dexamethasone (3 mg/kg) was prepared by dissolving 0.3 mg/mL of the compound in 30% PG in water at a dose volume of 10 ml/kg.\nThe effects of FLX-A-12 and FLX-B-10 were assessed in the ovalbumin mouse model of pulmonary inflammation. The study was performed in female Balb/c mice, and included the following 6 treatment groups (n=10/group): (i) Vehicle group: challenged with saline and dosed with compound Vehicle, 1 hr before challenge; (ii) OVA/Vehicle group (control): challenged with ovalbumin and dosed with compound Vehicle, 1 hr before challenge; (iii) OVA/FLX-A-12 50 mg/kg (p.o.): challenged with ovalbumin and dosed with FLX-A-12, 1 hr before challenge; (iv) OVA/FLX-B-10 30 mg/kg (p.o.): challenged with ovalbumin and dosed with FLX-B-10, 1 hr before challenge; (v) OVA/FLX-B-10 100 mg/kg (p.o.): challenged with ovalbumin and dosed with FLX-B-10, 1 hr before challenge; and (vi) Dexamethasone 3 mg/kg (p.o.) group: challenged with ovalbumin and dosed with Dexamethasone, 1 hr before challenge.\nThe eosinophilic inflammation induced by ovalbumin-challenge (i.n.) was measured as cell count increase in bronchoalveolar lavage fluid (BALF) using an automated system of haematological cellular analysis (DASIT Sysmex XT-2000iV) at 24 hours after the last OVA-challenge. The effects of the test compounds were evaluated as ability to decrease the eosinophilic inflammation with respect to the OVA group.\nFor antigen sensitization, on day 1, animals received 10 μg of OVA in 2 mg of Aluminium hydroxide hydrate (AlOH3) at a dose volume of 200 μl per mouse subcutaneously (s.c.). On day 14, all animals got a second (boost) s.c. injection with the same dose of Alum/OVA as above.\nOn days 20-23 inclusive, mice received vehicle, 30% PG in water, reference compound (Dexamethasone 3 mg/kg) and test compounds (FLX-A-12 at 50 mg/kg and FLX-B-10 at 30 and 100 mg/kg), 1 hr prior OVA challenge via the p.o. route. In addition, test compounds (FLX-A-12 and FLX-B-10) were dosed on day 19, 24 hr prior to the dosing on day 20. All compounds were administered at a dose volume of 10 ml/kg. Dose volumes were calculated based on individual animal weight. […]", "data": [{"smiles": "Cc1nc(N2CC([C@H]3CCCN([C@H]4C[C@](C)(C(=O)O)C4)C3)C2)nc(N[C@H](C)c2ccc(Cl)cc2Cl)c1Cl", "note": "[FLX-B-10, (1R,3r)-3-((R)-3-(1-(5-chloro-4-(((R)-1-(2,4-dichlorophenyl)ethyl)amino)-6-methylpyrimidin-2-yl)azetidin-3-yl)piperidin-1-yl)-1-methylcyclobutane-1-carboxylic acid]", "values": [{"measurement": "CCL-22 in BALF", "setting": "30 mg/kg p.o. (FIG. 6)", "result": "significantly reduced in all conditions, except for FLX-B-10 at 30 mg/kg"}, {"measurement": "IL-5 levels in BALF", "setting": "100 mg/kg p.o., vs OVA group (FIG. 3)", "result": "significantly reduced"}, {"measurement": "IL-13 in BALF, dose dependence", "setting": "30 and 100 mg/kg p.o. (FIG. 4)", "result": "dose-dependent decrease"}, {"measurement": "CCL-22 in BALF, dose dependence", "setting": "30 and 100 mg/kg p.o. (FIG. 6)", "result": "dose-dependent decrease"}, {"measurement": "reduction of eosinophilic inflammation (BALF) with respect to the OVA group", "setting": "30 and 100 mg/kg p.o., 24 hours after last ovalbumin challenge", "result": "statistically significant reduction of eosinophilic inflammation only at 100 mg/kg"}]}]}
